# From ChEMBL document CHEMBL1201862, “PubChem BioAssay data set” (2004)
# The source made the active and inactive calls.
# How the values were obtained:
# [1] = LGR2 antagonists, dose response, cell-based, HEK293, CRE-luciferase reporter, cherry pick, set 2 (AID 743343); format: functional;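 further: transfected cells were stimulated with diluted bursicon conditioned medium after compound addition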
# [2] = A549 cell cytotoxicity, dose response, cytotoxicity control, plate reader, cherry-pick, antagonist series (AID 743412); format: functional, cell-based
# [3] = control 3'UTR Renilla luciferase suppression, dose response, counter-screen for Shn3 inhibitor project, cell-based, Clone20-Shn3RL, cherry-picked (AID 624133); format: functional
# [4] = MC4R antagonists, dose response, counter-screen for LGR2 antagonist project, cell-based, plate reader, cherry pick (AID 743444); format: functional;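 further: transfected HEK 293 cells stimulated with alpha-MSH peptide; potency of inhibitors of the alpha-MSH evoked signal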
# [5] = target: T1, Heat shock factor protein 1 (Mus musculus, UniProt P38532); assay: inhibition of MG132-induced HSE-luciferase signal, confirmation, cell-based, NIH3T3, luminescence, dose retest (AID 2382); format: functional;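 further: NIH3T3 fibroblasts with HSF1-driven luciferase reporter stressed by proteasome inhibitor MG132; luminescence from HSF1-driven luciferase expression after 8 hours of MG132 stress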
# T1 sequence (P38532 whole entry): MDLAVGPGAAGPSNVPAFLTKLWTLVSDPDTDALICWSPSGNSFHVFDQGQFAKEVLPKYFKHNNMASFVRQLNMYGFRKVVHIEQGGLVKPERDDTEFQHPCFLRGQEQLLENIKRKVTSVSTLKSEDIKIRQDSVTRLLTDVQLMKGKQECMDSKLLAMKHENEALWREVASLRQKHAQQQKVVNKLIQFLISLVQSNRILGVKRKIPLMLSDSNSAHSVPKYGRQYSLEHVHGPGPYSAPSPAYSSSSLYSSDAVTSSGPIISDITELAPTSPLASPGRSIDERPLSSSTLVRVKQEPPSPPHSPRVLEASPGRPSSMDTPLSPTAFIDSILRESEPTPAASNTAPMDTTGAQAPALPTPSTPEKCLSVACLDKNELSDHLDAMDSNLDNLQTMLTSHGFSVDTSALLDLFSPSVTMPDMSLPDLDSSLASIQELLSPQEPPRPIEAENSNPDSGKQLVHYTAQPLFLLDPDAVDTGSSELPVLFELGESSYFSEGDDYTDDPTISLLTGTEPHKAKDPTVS
# [6] = Shn3 3'UTR reporter inhibitors, dose response, cell-based, Clone20 osteoblasts, firefly luciferase, cherry-picked (AID 624132); format: functional;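 further: firefly luciferase luminescence from reporter carrying the Shn3 3'UTR in osteoblasts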
# [7] = target: T2, Protein RecA (Mycobacterium tuberculosis, UniProt P9WHJ3); assay: Fluorescence Cell-Free Homogeneous Dose Retest to Identify Inhibitors of RecA-Intein Splicing Activity. [Related pubchem assays (depositor defined):AID2097, AID2223, AID489010, AID492950]; format: functional
# T2 sequence (P9WHJ3 whole entry): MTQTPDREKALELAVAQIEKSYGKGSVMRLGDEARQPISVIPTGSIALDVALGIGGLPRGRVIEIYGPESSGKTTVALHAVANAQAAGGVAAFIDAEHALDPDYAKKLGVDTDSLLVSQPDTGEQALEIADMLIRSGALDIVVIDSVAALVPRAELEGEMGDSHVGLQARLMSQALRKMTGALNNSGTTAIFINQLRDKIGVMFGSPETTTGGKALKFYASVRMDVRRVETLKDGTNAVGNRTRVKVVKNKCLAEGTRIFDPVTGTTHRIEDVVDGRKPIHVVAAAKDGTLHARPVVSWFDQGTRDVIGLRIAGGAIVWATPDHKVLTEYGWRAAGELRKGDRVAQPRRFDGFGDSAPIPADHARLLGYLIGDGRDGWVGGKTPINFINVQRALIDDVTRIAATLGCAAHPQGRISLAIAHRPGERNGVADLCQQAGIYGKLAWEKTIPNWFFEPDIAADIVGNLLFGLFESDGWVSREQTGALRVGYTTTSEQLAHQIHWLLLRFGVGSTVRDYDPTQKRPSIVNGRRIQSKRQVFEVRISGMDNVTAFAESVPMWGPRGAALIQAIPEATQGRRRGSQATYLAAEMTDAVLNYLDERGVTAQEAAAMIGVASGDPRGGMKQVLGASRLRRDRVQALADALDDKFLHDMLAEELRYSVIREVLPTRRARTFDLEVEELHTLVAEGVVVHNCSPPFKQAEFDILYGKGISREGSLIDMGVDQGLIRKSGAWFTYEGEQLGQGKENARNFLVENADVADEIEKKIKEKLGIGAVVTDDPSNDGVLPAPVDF
# [8] = target: T3, Histone-lysine N-methyltransferase NSD2 (Homo sapiens, UniProt O96028); format: biochemical
# T3 sequence (O96028 whole entry): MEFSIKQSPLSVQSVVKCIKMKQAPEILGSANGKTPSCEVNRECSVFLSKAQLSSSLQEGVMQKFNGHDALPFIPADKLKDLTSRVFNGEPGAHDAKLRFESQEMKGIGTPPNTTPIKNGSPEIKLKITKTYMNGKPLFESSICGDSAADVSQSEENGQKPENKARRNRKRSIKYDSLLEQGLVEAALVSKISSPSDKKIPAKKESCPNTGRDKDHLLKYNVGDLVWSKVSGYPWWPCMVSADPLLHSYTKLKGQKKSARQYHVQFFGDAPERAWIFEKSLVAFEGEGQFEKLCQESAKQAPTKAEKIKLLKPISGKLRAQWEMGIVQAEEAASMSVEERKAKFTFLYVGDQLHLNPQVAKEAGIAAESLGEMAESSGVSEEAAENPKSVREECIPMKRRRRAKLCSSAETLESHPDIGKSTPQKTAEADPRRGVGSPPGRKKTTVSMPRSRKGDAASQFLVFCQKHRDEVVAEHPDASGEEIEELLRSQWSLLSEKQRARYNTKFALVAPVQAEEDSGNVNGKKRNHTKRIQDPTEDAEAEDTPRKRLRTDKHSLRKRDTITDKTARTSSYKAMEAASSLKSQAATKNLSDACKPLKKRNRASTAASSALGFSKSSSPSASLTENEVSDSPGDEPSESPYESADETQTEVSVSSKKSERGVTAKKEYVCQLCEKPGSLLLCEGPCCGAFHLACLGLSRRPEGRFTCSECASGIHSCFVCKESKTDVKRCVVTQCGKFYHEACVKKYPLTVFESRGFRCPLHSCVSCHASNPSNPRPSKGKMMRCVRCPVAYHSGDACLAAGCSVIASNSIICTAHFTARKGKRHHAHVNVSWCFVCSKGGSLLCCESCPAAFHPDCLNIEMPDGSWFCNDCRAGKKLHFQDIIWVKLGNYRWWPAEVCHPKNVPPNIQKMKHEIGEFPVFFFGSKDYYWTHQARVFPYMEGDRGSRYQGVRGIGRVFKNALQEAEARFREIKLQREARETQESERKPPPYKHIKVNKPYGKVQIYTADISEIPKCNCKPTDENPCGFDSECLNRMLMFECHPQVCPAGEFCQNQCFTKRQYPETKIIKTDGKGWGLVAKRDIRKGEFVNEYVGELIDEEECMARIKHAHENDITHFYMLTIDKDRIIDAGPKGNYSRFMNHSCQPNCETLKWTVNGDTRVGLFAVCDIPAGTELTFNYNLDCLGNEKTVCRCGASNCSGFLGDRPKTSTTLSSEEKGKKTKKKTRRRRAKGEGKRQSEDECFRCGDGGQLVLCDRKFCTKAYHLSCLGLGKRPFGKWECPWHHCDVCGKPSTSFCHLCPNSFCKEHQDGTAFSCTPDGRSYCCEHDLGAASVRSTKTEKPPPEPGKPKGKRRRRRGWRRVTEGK
# [9] = target: T4, Estrogen receptor beta (Homo sapiens, UniProt Q92731);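 further: recombinant ER-beta bound to coactivator SRC1 peptide in presence of estradiol agonist; inhibitors block coactivator peptide binding and lower the FRET signal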
# T4 sequence (Q92731 whole entry): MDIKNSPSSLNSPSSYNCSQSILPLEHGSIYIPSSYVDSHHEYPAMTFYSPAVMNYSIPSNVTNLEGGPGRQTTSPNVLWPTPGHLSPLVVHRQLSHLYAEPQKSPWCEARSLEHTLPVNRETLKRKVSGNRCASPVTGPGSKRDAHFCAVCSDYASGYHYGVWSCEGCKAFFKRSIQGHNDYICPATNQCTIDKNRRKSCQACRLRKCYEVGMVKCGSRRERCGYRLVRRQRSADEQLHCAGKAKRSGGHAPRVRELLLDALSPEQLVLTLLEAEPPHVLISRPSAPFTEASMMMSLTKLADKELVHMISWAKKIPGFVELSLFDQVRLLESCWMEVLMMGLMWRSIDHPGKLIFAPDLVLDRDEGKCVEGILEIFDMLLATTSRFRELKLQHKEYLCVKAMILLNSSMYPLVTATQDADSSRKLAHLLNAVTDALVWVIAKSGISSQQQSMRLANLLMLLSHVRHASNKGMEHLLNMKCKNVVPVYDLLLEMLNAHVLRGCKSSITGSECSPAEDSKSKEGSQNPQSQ
# [10] = target: T4, Estrogen receptor beta; assay: ERβ–SRC-3 coactivator interaction inhibitors, confirmation, orthogonal assay, biochemical, ELISA, streptavidin-HRP readout (AID 1060)
# [11] = target: T5, Oxysterols receptor LXR-beta (Homo sapiens, UniProt P55055); format: functional, cell-based;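 further: agonist activity at LXR measured by a cell-based luminescence readout across a dose range, run as a counterscreen for daf-12 agonists; HEK293 cells with Gal4-LXR fusion and GAL4-driven luciferase reporter; potency for activation of Gal4-LXR reporter so compounds are agonists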
# T5 sequence (P55055 whole entry): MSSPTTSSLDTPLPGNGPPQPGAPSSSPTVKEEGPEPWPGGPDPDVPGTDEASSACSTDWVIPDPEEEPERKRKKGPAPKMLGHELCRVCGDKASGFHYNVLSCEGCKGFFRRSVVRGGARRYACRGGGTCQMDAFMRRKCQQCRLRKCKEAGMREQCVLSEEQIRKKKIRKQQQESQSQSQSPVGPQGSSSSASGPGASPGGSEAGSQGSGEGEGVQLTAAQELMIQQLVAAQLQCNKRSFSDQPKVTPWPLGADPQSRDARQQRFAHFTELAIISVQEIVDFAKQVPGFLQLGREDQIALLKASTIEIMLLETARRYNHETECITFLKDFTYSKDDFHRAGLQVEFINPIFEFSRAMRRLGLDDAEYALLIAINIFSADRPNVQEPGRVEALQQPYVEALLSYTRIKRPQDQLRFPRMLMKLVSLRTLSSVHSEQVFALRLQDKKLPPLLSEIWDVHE
# [12] = target: T6, Protein skinhead-1 (Caenorhabditis elegans, UniProt P34707); format: functional
# T6 sequence (P34707 whole entry): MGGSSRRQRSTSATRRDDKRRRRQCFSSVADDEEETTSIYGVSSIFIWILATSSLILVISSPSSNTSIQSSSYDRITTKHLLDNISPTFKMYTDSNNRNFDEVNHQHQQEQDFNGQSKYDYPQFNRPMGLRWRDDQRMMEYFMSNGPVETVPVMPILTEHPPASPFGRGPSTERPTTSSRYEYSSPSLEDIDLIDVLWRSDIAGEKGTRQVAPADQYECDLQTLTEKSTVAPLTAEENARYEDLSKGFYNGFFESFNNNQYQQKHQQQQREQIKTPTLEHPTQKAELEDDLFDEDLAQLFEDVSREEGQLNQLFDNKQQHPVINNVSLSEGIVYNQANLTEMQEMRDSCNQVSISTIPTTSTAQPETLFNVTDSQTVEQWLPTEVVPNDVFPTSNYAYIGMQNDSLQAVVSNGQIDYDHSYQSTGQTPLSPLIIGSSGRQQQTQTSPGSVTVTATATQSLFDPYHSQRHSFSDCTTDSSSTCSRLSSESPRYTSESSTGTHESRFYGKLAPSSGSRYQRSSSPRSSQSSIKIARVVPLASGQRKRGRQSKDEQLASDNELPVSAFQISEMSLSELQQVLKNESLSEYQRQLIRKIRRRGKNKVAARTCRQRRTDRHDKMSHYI
# [13] = inhibitors of PGC1a acetylation in cells, dose response, cell-based, cherry-picked samples (AID 720514); format: functional;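 further: potency may reflect raised or lowered acetylation signal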
# [14] = cytotoxicity in OVCAR8 ovarian cancer cells, dose response, PAX8 project, cell-based, plate reader, dry powder samples (AID 743197); format: functional; details: OVCAR-8
# [15] = IGROV1 ovarian cancer cell cytotoxicity, dose response, PAX8 inhibitor project, plate reader, dry powder samples (AID 743043); format: functional, cell-based; details: IGROV-1
# [16] = target: Paired box protein Pax-8 (Homo sapiens, UniProt Q06710); assay: inhibitors of PAX8-driven TPO luciferase reporter, dose response, RMG-I cells, cherry-pick (AID 687027); format: functional, cell-based;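 further: luciferase reporter driven by Pax8 target thyroperoxidase promoter measured by SteadyGlo luminescence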
# Sequence of Paired box protein Pax-8 (Q06710 whole entry): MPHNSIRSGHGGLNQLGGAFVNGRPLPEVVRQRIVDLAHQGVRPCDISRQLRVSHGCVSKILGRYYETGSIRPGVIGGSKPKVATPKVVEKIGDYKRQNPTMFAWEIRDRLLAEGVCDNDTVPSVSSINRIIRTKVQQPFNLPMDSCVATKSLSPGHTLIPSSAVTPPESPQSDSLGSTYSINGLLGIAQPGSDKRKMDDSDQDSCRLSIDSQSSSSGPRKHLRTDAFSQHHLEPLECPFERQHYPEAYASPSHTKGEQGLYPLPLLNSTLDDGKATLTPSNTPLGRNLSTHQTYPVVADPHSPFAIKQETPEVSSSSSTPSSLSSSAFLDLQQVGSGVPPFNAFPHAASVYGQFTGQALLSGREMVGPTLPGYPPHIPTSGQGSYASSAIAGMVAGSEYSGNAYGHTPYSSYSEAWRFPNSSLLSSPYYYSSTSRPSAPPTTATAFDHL
# [17] = NIH:OVCAR-3 ovarian cancer cell cytotoxicity, dose response, PAX8 inhibitor project, plate reader, dry powder samples (AID 743044); format: functional, cell-based
# [18] = HepG2 cell cytotoxicity, dose response, cytotoxicity control, cherry-picked samples (AID 1159577); format: functional, cell-based
# [19] = P. falciparum Dd2 growth inhibitors, dose response, SYBR Green, cherry-picked samples (AID 1159567); format: functional, cell-based
smiles,measurement,setting,value
O=C(O)c1cccc(COc2ccc(CO)cc2Cl)c1,AC50,[1],0.296 µM (active)
same,AC50,[2],> 52 µM (inactive)
same,AC50,[3],35 µM (active)
same,AC50,[4],0.274 µM (active)
same,EC50,[5],0.375 µM (active)
same,AC50,[6],1.04 µM (active)
CCCCNC(=O)c1c(N)n(Cc2ccc3c(c2)OCO3)c2nc3ccccc3nc12,EC50,[7],56.3 µM (active)
same,AC50,[8],19.4 µM (active)
CCCOC(=O)c1cc(-c2ccc(/C=C3/C(=O)N(C)C(=O)C(C#N)=C3C)o2)ccc1Cl,IC50,[9],> 50 µM (not active)
same,IC50,[10],10.3 µM (not active)
N=C1/C(=C/c2ccc(OCc3ccccc3F)cc2)C(=O)N=C2SC(CC(=O)N3CCOCC3)=NN12,EC50,[11],> 67.5 µM (inactive)
Brc1ccc(-c2noc(-c3ccccc3)n2)o1,EC50,[11],> 67.6 µM (inactive)
same,IC50,[12],> 100 µM (inactive)
Cc1cc(C(=O)CSc2cccc[n+]2[O-])c(C)n1-c1ccccc1,EC50,[11],> 67.5 µM (inactive)
Cc1cc(O)nc(SCC(=O)c2ccc(F)c(C)c2)n1,AC50,[13],26.9 µM (active)
O=c1c2ccccc2nnn1CCc1ccccc1,EC50,[11],> 67.4 µM (inactive)
Cc1ccc(S(=O)(=O)Nc2ccc3c(c2)C(=O)N([C@@H](C)CO)C[C@H](C)[C@@H](CN(C)Cc2ccc(C(F)(F)F)cc2)OCCCC[C@@H](C)O3)cc1,AC50,[14],30.4 µM (active)
same,AC50,[15],33.1 µM (active)
same,AC50,[16],5.99 µM (active)
same,AC50,[17],11.4 µM (active)
C[C@H]1CCCCO[C@@H](CN(C)Cc2ccc(C(F)(F)F)cc2)[C@@H](C)CN([C@@H](C)CO)C(=O)c2cc(NS(=O)(=O)c3ccccc3)ccc2O1,AC50,[14],> 70 µM (inactive)
same,AC50,[15],47.8 µM (active)
same,AC50,[16],7.08 µM (active)
same,AC50,[17],58.1 µM (active)
C[C@H]1CCCCO[C@@H](CN(C)Cc2ccc(C(F)(F)F)cc2)[C@@H](C)CN([C@@H](C)CO)C(=O)c2cc(NC(=O)c3ccccc3)ccc2O1,AC50,[14],> 70 µM (inactive)
same,AC50,[15],29.4 µM (active)
same,AC50,[16],7.47 µM (active)
same,AC50,[17],6.48 µM (active)
COc1cccc(-c2ccc([C@@H]3[C@H]4CNC[C@@H]3N4Cc3ccc4c(c3)OCO4)cc2)c1,AC50,[13],34.3 µM (active)
O=C(Nc1cc(F)ccc1F)N1CC(=O)N2[C@H](CO)[C@@H](c3ccc(C#CC4CCCCC4)cc3)[C@@H]2C1,AC50,[18],40.3 µM (active)
same,AC50,[19],13.3 µM (active)
Cc1ccccc1S(=O)(=O)N1CCCCN2[C@H](CO)[C@H](c3ccc(-c4ccccc4)cc3)[C@H]2C1,AC50,[18],8.53 µM (active)
same,AC50,[19],1.05 µM (active)
